The record followed here is patent US20120165319A1, “INHIBITORS OF INTERLEUKIN-1 BETA CONVERTING ENZYME” (VERTEX PHARMACEUTICALS INCORPORATED, priority 1995, published 2012).

Read-outs that look alike come from different tables or passages of the source. Some results are limits rather than exact numbers.

One experiment has as its system IL-1β, human whole blood. Put plainly: Whole blood assay for IL-1β production. The format is cell-based. The method in brief:
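IL-1β was quantified by ELISA in plasma diluted 1:200. The plasma came from EDTA-anticoagulated human whole blood incubated at 30 °C for 16-18 h with LPS (final 5.0 ng/ml) plus a saline serial dilution of compound. Controls were no-LPS, no-inhibitor and highest-vehicle.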

The subject of experiment [1] is IL-1β, human peripheral blood mononuclear cells (PBMC). Put plainly: PBMC cell assay: IL-1β assay with human PBMC or enriched adherent mononuclear cells, LPS-stimulated. The experiment is classed as cell-based. The gist of the method:
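Mature IL-1β is measured by ELISA in supernatants after 16–18 hr at 37 °C, 5% CO2, with LPS (5 ng/ml final) and test compound (0.1% DMSO final). Cells are human PBMC (6×10^6 cells/ml) or plate-adherent mononuclear cells (2.5−3.0×10^5 per well), and the 5–6 compound concentrations span the ICE Ki.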

[2] abbreviates: Homo sapiens, * = values obtained upon reassay, read-out: Whole human blood IC50.
The mark [3] stands for this setting: Homo sapiens, PBMC, * = values obtained upon reassay.
Setting [4] is: Homo sapiens, Table 17, read-out: Whole human blood IC50.
[5] abbreviates: * = values obtained upon reassay, read-out: Whole human blood IC50.
The mark [6] stands for this setting: * = values obtained upon reassay.
Where [7] appears, read: Table 18, read-out: Whole human blood IC5O.

As to `O=C(O)C[C@H](NC(=O)[C@@H]1CCCN2C(=O)CC[C@H](NC(=O)c3ccccc3)C(=O)N12)C(=O)COC(=O)c1c(Cl)cccc1Cl` [Compound 217e, [3S(1S,9S)]3-(9-Benzoylamino-6,10-dioxo-1,2,3,4,7,8,9,10-octahydro-6H-pyridazino[1,2-a][1,2]-diazepine-1-carboxamido)-5-(2,6-dichlorobenzoyloxy)-4-oxopentanoic acid], the IC50 with IL-1β, human whole blood (setting [2]) was determined as 2 µM; in experiment [1] (setting [3]), 0.175 µM.

As to `O=C[C@H](CC(=O)O)NC(=O)[C@@H]1CCCN2C(=O)CC[C@H](NC(=O)c3cc(Cl)c(O)c(Cl)c3)C(=O)N12` [Compound 214k, [3S(1S,9S)]3-(9-(3,5-Dichloro-4-hydroxybenzoyl)amino-6,10-dioxo-1,2,3,4,7,8,9,10-octahydro-6H-pyridazino[1,2-a][1,2]diazepine-1-carboxamido)-4-oxobutanoic acid], the IC50 with IL-1β, human whole blood (setting [4]) came out at 0.58 µM; in experiment [1] (Homo sapiens, PBMC, Table 17), 0.5 µM.

On to `O=C[C@H](CC(=O)O)NC(=O)[C@@H]1CCCN2C(=O)CCN(NC(=O)c3ccc4c(c3)OCO4)C(=O)N12` [Compound 1015, [3S(4S)]3-[6,10-Dioxo-7-(3,4-methylenedioxybenzoylamino)-1,2,3,4,7,8,9,10-octahydro-6H-pyridazino[1,2-a][1,2,4]triazepine-4-carboxamido]-4-oxobutanoic acid], for which the IC50 in the experiment on IL-1β, human whole blood (setting [2]) stood at 1.7 µM; in experiment [1] (setting [3]) it was 2.5 µM.

For `O=C[C@H](CC(=O)O)NC(=O)[C@@H]1CCCN2C(=O)CC[C@H](NC(=O)c3nccc4ccccc34)C(=O)N12` [Compound 412, [3S(1S,9S)]3-[6,10-Dioxo-9-(isoquinolin-1-oylamino)-1,2,3,4,7,8,9,10-octahydro-6H-pyridazino[1,2-a][1,2]diazepine-1-carboxamido]-4-oxobutanoic acid], the IC50 amounted to 1 µM in the experiment with IL-1β, human whole blood (setting [5]); 0.7 µM in the experiment on IL-1β, human whole blood (setting [2]); 0.66 µM in experiment [1] (setting [6]); 0.58 µM in experiment [1] (setting [3]).

Take `CC(C)C(=O)Nc1ccc(C(=O)N[C@H]2CCC(=O)N3CCC[C@@H](C(=O)N[C@H](C=O)CC(=O)O)N3C2=O)cc1` [Compound 484]: the IC50 was 5 µM in the experiment on IL-1β, human whole blood (setting [2]); 1.4 µM in experiment [1] (setting [6]); 1.55 µM in experiment [1] (setting [3]).

As to `O=C[C@H](CC(=O)O)NC(=O)[C@@H]1CCCN2C(=O)CC[C@H](NC(=O)c3ccc4nc[nH]c4c3)C(=O)N12` [Compound 434], the IC50 in the experiment with IL-1β, human whole blood (setting [5]) was 1.3 µM; in the experiment on IL-1β, human whole blood (setting [2]) it was 1.8 µM; in experiment [1] (setting [6]), 1.2 µM; in experiment [1] (setting [3]) it was 1.6 µM.

With `CC(C)(C)OC(=O)C[C@@H](C=O)NC(=O)[C@@H]1CCCN2C(=O)CC[C@H](NC(=O)c3ccccc3)C(=O)N12` [Compound 302, [3S(1S,9S)3-(9-Benzoylamino-6,10-dioxo-1,2,3,4,7,8,9,10-octahydro-6H-pyriazino-[1,2-a][1,2]diazapine-1-carboxamido)-amino]-4-oxobutanoic acid tert-butyl ester], the IC50 in the experiment on IL-1β, human whole blood (setting [2]) is over 20 µM; in experiment [1] (setting [3]) it was over 20 µM.

As for `COC(=O)N[C@H]1CCC(=O)N2CCC[C@@H](C(=O)N[C@@H](CC(=O)O)C(=O)COC(=O)c3c(C)cccc3C)N2C1=O` [Compound 285, [3S(1S,9S)]5-(2,6-Dimethylbenzoyloxy)-3-[6,10-dioxo-9-(methoxycarbonyl)amino-1,2,3,4,7,8,9,10-octahydro-6H-pyridazino[1,2-a][1,2]diazepine-1-carboxamido]-4-oxopentanoic acid], the IC50 amounted to 1 µM in the experiment on IL-1β, human whole blood (setting [2]) and 0.81 µM in experiment [1] (setting [3]).

With `O=C[C@H](CC(=O)O)NC(=O)[C@@H]1CCCN2C(=O)CC[C@H](NC(=O)c3cccc4ccccc34)C(=O)N12` [Compound 408, [3S(1S,9S)]3-[6,10-Dioxo-9-(naphth-1-oylamino)-1,2,3,4,7,8,9,10-octahydro-6H-pyridazino[1,2-a][1,2]diazepine-1-carboxamido]-4-oxobutanoic acid], the IC50 with IL-1β, human whole blood (setting [2]) was found to be 1 µM; in experiment [1] (setting [3]) it was 1.1 µM.

Consider `O=C[C@H](CC(=O)O)NC(=O)[C@@H]1CCCN2C(=O)CCN(NC(=O)c3ccccc3)C(=O)N12` [Compound 265, [3S(4S)]3-(7-Benzamido-6,10-dioxo-1,2,3,4,7,8,9,10-octahydro-6H-pyridazino[1,2-a][1,2,4]triazepine-4-carboxamido)-4-oxobutanoic acid], for which the IC50 was 1.4 µM with IL-1β, human whole blood (setting [2]) and 4.3 µM in experiment [1] (setting [3]).

In the case of `O=C[C@H](CC(=O)O)NC(=O)[C@@H]1CCCN2CCC[C@H](NC(=O)c3ccccc3)C(=O)N12` [Compound 246], the IC50 in the experiment with IL-1β, human whole blood (setting [2]) came out at 10 µM; in experiment [1] (setting [3]) it was 0.95 µM.

With `CN(C)c1cccc(C(=O)N[C@H]2CCC(=O)N3CCC[C@@H](C(=O)N[C@H](C=O)CC(=O)O)N3C2=O)c1` [Compound 470], the IC50 in the experiment on IL-1β, human whole blood (setting [5]) turned out to be 0.5 µM; in the experiment with IL-1β, human whole blood (setting [2]) it was 0.36 µM; in experiment [1] (setting [3]) it was 0.5 µM.

With `O=C(O)CC(NC(=O)[C@@H]1CCCN2C(=O)CC[C@H](NC(=O)c3ccccc3)C(=O)N12)C(=O)CF` (stereo partly drawn) [Compound 230e, [3RS,(1S,9S)]3-(9-Benzoylamino-6,10-dioxo-1,2,3,4,7,8,9,10-octahydro-6H-pyridazino[1,2-a][1,2]-diazepine-1-carboxamido)-5-fluoro-4-oxopentanoic acid], the IC50 came out at 0.3 µM in the experiment with IL-1β, human whole blood (setting [5]) and 0.325 µM in experiment [1] (setting [6]).

`COc1c(Cl)cc(C(=O)N[C@H]2CCC(=O)N3CCC[C@@H](C(=O)N[C@H](C=O)CC(=O)O)N3C2=O)cc1Cl` [Compound 214m]: the IC50 turned out to be 2.2 µM with IL-1β, human whole blood (setting [4]) and 0.53 µM in experiment [1] (Homo sapiens, PBMC, Table 17).

Consider `CS(=O)(=O)N[C@H]1CCC(=O)N2CCC[C@@H](C(=O)N[C@@H](CC(=O)O)C(=O)COC(=O)c3cccc4ccccc34)N2C1=O` [Compound 286, [3S(1S,9S)]3-(6,10-Dioxo-9-methanesulphonylamino-1,2,3,4,7,8,9,10-octahydro-6H-pyridazino[1,2-a][1,2]diazepine-1-carboxamido)-5-(1-naphthoyloxy)-4-oxopentanoic acid], for which the IC50 is 1.6 µM in the experiment on IL-1β, human whole blood (setting [7]) and 0.3 µM in experiment [1] (Table 18).

For the compound `O=C(O)C[C@H](NC(=O)[C@@H]1CCCN2C(=O)CC[C@H](NC(=O)CCc3ccccc3)C(=O)N12)C(=O)c1ncc(-c2c(Cl)cccc2Cl)o1` [Compound 137], the IC50 with IL-1β, human whole blood (setting [2]) was found to be 14 µM; in experiment [1] (setting [3]) it was 1.7 µM.

With `O=C(O)C[C@H](NC(=O)[C@@H]1CCCN2C(=O)CC[C@H](NC(=O)c3ccccc3)C(=O)N12)C(=O)CSCc1ccccc1Cl` [Compound 226e, [3S(1S,9S)]3-(9-Benzoylamino-6,10-dioxo-1,2,3,4,7,8,9,10-octahydro-6H-pyridazino[1,2-a][1,2]-diazepine-1-carboxamido)-5-(2-chlorophenyl)methylthio-4-oxopentanoic acid], the IC50 in the experiment on IL-1β, human whole blood (setting [2]) is 1.8 µM; in experiment [1] (setting [3]), 1.1 µM.

`COc1cc(C(=O)N[C@H]2CCC(=O)N3CCC[C@@H](C(=O)N[C@H](C=O)CC(=O)O)N3C2=O)cc(OC)c1OC` [Compound 417, [3S(1S,9S)]3-[6,10-Dioxo-1,2,3,4,7,8,9,10-octahydro-9-(3,4,5-trimethoxybenzoylamino)-6H-pyridazino[1,2-a][1,2]diazepine-1-carboxamido]-4-oxobutanoic acid]: the IC50 in the experiment with IL-1β, human whole blood (setting [2]) is 6 µM; in experiment [1] (setting [3]), 2 µM.

With `Cc1cc(C(=O)N[C@H]2CN(C(=O)CO)c3ccccc3N(CC(=O)N[C@H](C=O)CC(=O)O)C2=O)cc(C)c1O` [Compound 691a, (3S)-3-[(3S)-2-Oxo-3-(3,5-dimethyl-4-hydroxybenzoyl)amino-5-hydroxyacetyl-2,3,4,5-tetrahydro-1H-1,5-benzodiazepine-1-acetylamino]-4-oxo-butyric acid], the IC50 is 1.2 µM with IL-1β, human whole blood (setting [4]) and 2.9 µM in experiment [1] (Homo sapiens, PBMC, Table 17).

With `O=C[C@H](CC(=O)O)NC(=O)[C@@H]1CCCN2C(=O)CCN(NC(=O)c3cc4ccccc4s3)C(=O)N12` [Compound 1053, [3S(4S)]3-[7-(Benzo[b]thiophene-2-carbonyl)amino-6,10-dioxo-1,2,3,4,7,8,9,10-octahydro-6H-pyridazino[1,2-a][1,2,4]triazepine-4-carboxamido]-4-oxobutanoic acid], the IC50 in the experiment with IL-1β, human whole blood (setting [4]) was over 20 µM; in experiment [1] (Homo sapiens, PBMC, Table 17) it was 2 µM.

Regarding `CS(=O)(=O)N[C@H]1CCC(=O)N2CCC[C@@H](C(=O)N[C@@H](CC(=O)O)C(=O)COC(=O)c3c(Cl)cccc3Cl)N2C1=O` [Compound 138], the IC50 in the experiment on IL-1β, human whole blood (setting [2]) amounted to 2.9 µM; in experiment [1] (setting [3]), 0.9 µM.

For “[3S(1S,9S)]3-[(6,10-Dioxo-9-(methanesulphonylamino)-1,2,3,4,7,8,9,10-octahydro-6H-pyridazino[1,2-a][1,2]diazepine-1-carboxamido]-5-(5-methyl-3-phenylisoxazoyloxy)-4-oxopentanoic acid [505 b]”, the IC50 in the experiment with IL-1β, human whole blood (setting [7]) is 2.1 µM; in experiment [1] (Table 18) it was 1.5 µM.

For the compound `Cc1cc(C(=O)N[C@H]2CCC(=O)N3CCC[C@@H](C(=O)N[C@H](C=O)CC(=O)O)N3C2=O)cc(C)c1O` [Compound 214w], the IC50 in the experiment on IL-1β, human whole blood (Table 17, read-out: Whole human blood IC50) worked out at 0.37 µM; in experiment [1] (Table 17), 0.62 µM.

For the compound `O=C(O)C[C@H](NC(=O)[C@@H]1CCCN2C(=O)CC[C@H](NC(=O)CCc3ccccc3)C(=O)N12)C(=O)CSCc1ccccc1Cl` [Compound 125b, [3S(1S,9S)]-3-(6,10-dioxo-1,2,3,4,7,8,9,10-octahydro)-9-(3-phenylpropionyl-amino)-6H-pyridazine[1,2-a][1,2]diazepine-1-carboxamido-5-(2-chlorophenyl-methylthio)-4-oxopentanoic acid], the IC50 in the experiment on IL-1β, human whole blood (setting [2]) is 4.5 µM; in experiment [1] (setting [3]) it was 0.8 µM.
